# According to PubChem BioAssay (NCI):
# Values joined by “and” are separate entries in the source; they are usually repeats but may differ in a detail not shown here. Identical values can stand only once.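 How tested: cells in 96-well plates exposed to compound for 48 hours at five concentrations. Here, GI50 denotes the concentration required for 50% inhibition of growth. The concentration for full growth arrest is given as TGI.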
# Tests used:
# Experiment in all cases: NCI tumour cell line growth inhibition, 48 h
# TK-10 renal = system: TK-10 renal
# SW-620 colon = system: SW-620 colon
# SNB-75 CNS = system: SNB-75 CNS
# SN12C renal = system: SN12C renal
# PC-3 prostate = system: PC-3 prostate
# MCF7 breast = system: MCF7 breast
# UO-31 renal = system: UO-31 renal
# OVCAR-8 ovarian = system: OVCAR-8 ovarian
# UACC-62 melanoma = system: UACC-62 melanoma
# K-562 leukemia = system: K-562 leukemia
SMILES,GI50 (TK-10 renal),TGI (TK-10 renal) [µM],GI50 (SW-620 colon),TGI (SW-620 colon),GI50 (SNB-75 CNS),TGI (SNB-75 CNS),GI50 (SN12C renal),TGI (SN12C renal),GI50 (PC-3 prostate),TGI (PC-3 prostate),GI50 (MCF7 breast),TGI (MCF7 breast),GI50 (UO-31 renal),TGI (UO-31 renal) [µM],GI50 (OVCAR-8 ovarian),TGI (OVCAR-8 ovarian),GI50 (UACC-62 melanoma),TGI (UACC-62 melanoma),GI50 (K-562 leukemia),TGI (K-562 leukemia)
Cc1cc2c(cc1Cl)SC1=NN(C)C(c3ccccc3O)N1S2(=O)=O (centres undefined),82.1 µM,> 100,94.5 µM,> 100 µM,> 100 µM,> 100 µM,58.7 µM,> 100 µM,> 100 µM,> 100 µM,> 100 µM,> 100 µM,53.7 µM,> 100,68 µM,> 100 µM,73.8 µM,> 100 µM,> 100 µM,> 100 µM
COc1ccc(N=C2NN=C(c3c[nH]c4ccccc34)CS2)cc1OC,38 µM,> 100,5.68 µM,> 60.4 µM,3.34 µM,20.6 µM,18.4 µM,> 100 µM,,> 45.8 µM,5.21 µM,> 75.5 µM,5.81 µM,> 100,22.7 µM,> 89.9 µM,4.81 µM,> 100 µM,7.67 µM,> 100 µM
Cn1cc(-c2nn3cc(-c4cccs4)nc3s2)c2cc(F)ccc21,4.92 µM,19.4,0.478 µM,> 100 µM,1.29 µM,6.45 µM,4.71 µM,> 100 µM,3.19 µM,> 100 µM,0.836 µM,30 µM,1.72 µM,> 100,4.53 µM,> 100 µM,1.93 µM,> 100 µM,0.451 µM,> 100 µM
COc1cc(C(=O)/C=C/c2c(C(F)(F)F)nc3sccn23)cc(OC)c1OC,2.3 µM,5.12,1.67 µM,3.56 µM,1.87 µM,4.86 µM,1.56 µM,3.69 µM,2.66 µM,8.69 µM,1.25 µM,3.33 µM,1.87 µM,3.71,3.08 µM,22.6 µM,1.52 µM,2.95 µM,1.74 µM,6.27 µM
O=c1[nH]c(-c2ccccn2)nc2sc3c(c12)CCCCCC3,> 100 µM,> 100,4.85 µM,> 100 µM,85.1 µM,> 100 µM,6.29 µM,> 100 µM,4.05 µM,> 100 µM,2.47 µM,> 100 µM,5.87 µM,> 100,4.33 µM,> 100 µM,5.51 µM,> 100 µM,0.99 µM,> 100 µM
COc1cc(C2c3cc4c(cc3[C@@H](Nc3cccc(O)c3)C3COC(=O)[C@H]23)OCO4)cc(OC)c1O (some centres undefined),,10.7,0.77 µM,41 µM,0.623 µM,14.1 µM,0.688 µM,6.82 µM,,15.4 µM,,28.4 µM,0.779 µM,7.4,0.769 µM,11.4 µM,0.603 µM,7.08 µM,0.802 µM,22.2 µM
C=CC[PH+](c1ccccc1)c1ccccc1.C=CC[PH+](c1ccccc1)c1ccccc1.[Cl][Pt][Cl],13.4 µM,32.7,3.46 µM,13.6 µM,11 µM,25.1 µM,3.35 µM,13.9 µM,7.11 µM,24.6 µM,5.62 µM,24.4 µM,3.95 µM,16.4,5.25 µM,31.5 µM,5.88 µM,19.5 µM,3.27 µM,11.9 µM
N#Cc1ccc(N2Cc3cc(Cl)ccc3OC3=C2C(=O)N(Cc2ccccc2)C3=O)cc1,1.45 µM,2.77,0.278 µM,0.971 µM,1.24 µM,2.53 µM,1.51 µM,3.14 µM,1.41 µM,3.52 µM,0.769 µM,4.72 µM,1.32 µM,2.61,,,1.26 µM,2.86 µM,0.359 µM,2.02 µM
Cn1c(COC(=O)NCCN2CCOCC2)nc2c(N3CCOCC3)nc(-c3ccccc3)nc21,1.48 µM,2.88,0.444 µM,1.78 µM,1.11 µM,2.67 µM,1.03 µM,2.6 µM,1.33 µM,3 µM,0.47 µM,2.18 µM,0.838 µM,2.18,1.3 µM,3.4 µM,1.36 µM,2.81 µM,0.523 µM,> 100 µM
O=[N+]([O-])c1cccc(-c2ncc(-c3ccc(Cl)cc3Cl)[nH]2)c1,3.3 µM,13.1,1.6 µM,3.16 µM,8 µM,36.9 µM,6.01 µM,12.6 µM,3.69 µM,14.9 µM,1.14 µM,3.57 µM,5.18 µM,15.3,22.4 µM,53.3 µM,7.63 µM,20.6 µM,2.1 µM,> 19.7 µM
CCCCCCN1C(=O)CN=C1Nc1ccc2cc3ccc(NC4=NCC(=O)N4CCCCCC)cc3nc2c1,1.56 µM,3.63,1.84 µM,3.7 µM,2.15 µM,12.4 µM,1.75 µM,3.45 µM,2.54 µM,9 µM,1.66 µM,3.95 µM,1.24 µM,2.54,,,11.7 µM,30 µM,1.91 µM,4.93 µM
CCCCCCCCCCCCCCCCCC1=NC(C)(C)CN1CCO,1.73 µM,3.31,1.75 µM,3.21 µM,1.81 µM,4.01 µM,1.61 µM,3.61 µM,1.63 µM,4.43 µM,1.78 µM,3.32 µM,1.57 µM,3.05,,,1.68 µM,3.18 µM,1.53 µM,3.35 µM
CCCOc1c2cc(COC3OC(CO)C(O)C(O)C3O)cc1Cc1cc(COC3OC(CO)C(O)C(O)C3O)cc(c1OCCC)Cc1cc(COC3OC(CO)C(O)C(O)C3O)cc(c1OCCC)Cc1cc(COC3OC(CO)C(O)C(O)C3O)cc(c1OCCC)C2 (centres undefined),> 100 µM and 46.8 µM,> 100,99.9 µM and > 100 µM and 15.6 µM,> 100 µM and 36.2 µM,18.5 µM and 55.4 µM and 22.2 µM,93.7 µM and > 100 µM and 62.8 µM,96.6 µM and > 100 µM and 18.5 µM,> 100 µM and 43.5 µM,> 100 µM and 17.2 µM,> 100 µM and 46.2 µM,53.7 µM and > 100 µM and 19.4 µM,> 100 µM and 44.3 µM,> 100 µM and 28.8 µM,> 100,> 100 µM and 18.4 µM,> 100 µM and 42.6 µM,90.7 µM and > 100 µM and 16 µM,> 100 µM and 35 µM,36.7 µM and 62.2 µM and 15.8 µM,> 100 µM and 32.5 µM
C#Cc1ccc(-n2c(/C=C/c3cc(OC)c(OC)c(OC)c3)nc3ncccc3c2=O)cc1,17.3 µM,62.9,3.29 µM,49.6 µM,3.88 µM,> 100 µM,20.5 µM,> 100 µM,3.96 µM,> 100 µM,3.17 µM,> 100 µM,4.09 µM,> 100,9.67 µM,> 100 µM,6.9 µM,> 100 µM,3.83 µM,> 100 µM
N#CC1(C#N)C2C=CC(C3CCC=C32)C1(C#N)C#N (centres undefined),,> 9.01,,3.32 µM,,> 10 µM,,> 10 µM,,> 10 µM,,> 10 µM,,> 5.88,,> 10 µM,,> 10 µM,,> 10 µM
Cc1nc(C(N)=S)sc1C(=O)CC(=O)C(=O)Nc1cccc(Cl)c1C,,> 100,,> 100 µM,,> 100 µM,,> 100 µM,,> 100 µM,,> 100 µM,,> 100,,> 100 µM,,> 100 µM,,> 100 µM
OCCCCC#Cc1ccccc1C#Cc1cnccn1,47.7 µM,> 100,62.6 µM,> 100 µM,17.3 µM,53.7 µM,47.3 µM,> 100 µM,34.6 µM,> 100 µM,44.6 µM,> 100 µM,27 µM,> 100,33 µM,> 100 µM,21.2 µM,> 100 µM,29.5 µM,> 100 µM
CCOC(=O)Cc1csc(NC(=O)C(OC(=O)c2ccc(N)cc2)c2ccccc2)n1 (centres undefined),56.6 µM,> 100,49.5 µM,> 100 µM,45.9 µM,> 100 µM,46.6 µM,> 100 µM,50.7 µM,> 100 µM,32.3 µM,> 100 µM,54.4 µM,> 100,73.6 µM,> 100 µM,25.9 µM,65.6 µM,31.6 µM,> 100 µM
CCNC(=O)Oc1ccc(/C(=C(\C)c2ccc(Cl)cc2)c2ccc(OCCN3CCCCC3)cc2)cc1,19.5 µM,34.6,2.2 µM,4.97 µM,2.67 µM,18.6 µM,5.95 µM,19.2 µM,3.38 µM,11.3 µM,0.484 µM,8.06 µM,2.05 µM,5.45,9.31 µM,26 µM,2.5 µM,6.01 µM,2.34 µM,5.96 µM
O=c1[nH]c2cc(O)ccc2n2cc3c(F)cccc3c12,> 100 µM,> 100,0.477 µM,> 100 µM,1.76 µM,> 100 µM,2.57 µM,> 100 µM,4.54 µM,> 100 µM,0.936 µM,> 100 µM,0.995 µM,> 100,3.85 µM,> 100 µM,1.29 µM,> 100 µM,0.547 µM,> 100 µM
CC(=O)C1=C(O)/C(=C\c2ccco2)OC1=O,,> 10,,> 10 µM,,> 10 µM,,> 10 µM,,> 10 µM,,> 10 µM,,> 10,,> 10 µM,,> 10 µM,,> 10 µM
O=c1c2cc(F)ccc2sc2c(NCCCN3CCCC3)nc3ccccc3c12,1.99 µM,3.65,,,1.43 µM,3.14 µM,1.97 µM,4.6 µM,1.6 µM,3.15 µM,1.22 µM,2.89 µM,1.59 µM,4.18,2.11 µM,4.86 µM,1.87 µM,3.77 µM,2.06 µM,4.86 µM
O=C(CC(C(=O)O)N1CCOCC1)c1ccccc1 (centres undefined),,30.1,,44.1 µM,,83.4 µM,,35.7 µM,,36 µM,,31.2 µM,,,,94.8 µM,,29.5 µM,,49.1 µM
C#Cc1cccc(Nc2ncnc3ccc(-c4cncc(NS(C)(=O)=O)c4)cc23)c1,,,2.36 µM,6.31 µM,0.524 µM,5.09 µM,2.51 µM,19.7 µM,2.21 µM,9.95 µM,1.5 µM,8.71 µM,1.53 µM,14.5,3.7 µM,28.1 µM,1.66 µM,5.69 µM,3.79 µM,19.5 µM
COc1cc(/C=C\c2cccnc2Nc2ccccc2)cc(OC)c1OC,15.5 µM,80.7,4.81 µM,> 100 µM,4.12 µM,57.5 µM,5.1 µM,> 100 µM,7.81 µM,75.1 µM,3.97 µM,44.7 µM,5.09 µM,72.8,6.7 µM,> 100 µM,4.96 µM,25.4 µM,,
CCOC(=O)C1=C(c2ccccc2)N(Cc2ccccc2)C2(O)C=CC(=O)C3C(=O)N(c4ccccc4)C(=O)C132 (centres undefined),2.71 µM,7.24,1.81 µM,3.91 µM,2.1 µM,4.62 µM,1.55 µM,4.9 µM,2.67 µM,9.32 µM,1.29 µM,3.08 µM,,,3.09 µM,17.5 µM,1.63 µM,3.16 µM,2.2 µM,8.79 µM
O=C(CN=Cc1cccs1)CSC(c1ccccc1)c1ccccc1,30.5 µM,> 100,29.8 µM,> 100 µM,30.5 µM,> 100 µM,19.6 µM,36.1 µM,17.5 µM,47.9 µM,18.8 µM,52.6 µM,,,22.6 µM,55.5 µM,16.2 µM,36.9 µM,15.8 µM,54.1 µM
